Assay results: patent publication US11453674B2, “Heterocyclic compound, preparation method and use thereof in medicine” (SUZHOU SINOVENT PHARMACEUTICALS CO., LTD., priority 2019, dated 2022)

The compounds below were run against T1, hURAT1 (Homo sapiens, UniProt Q96S37) (assay: Inhibition of 14C-uric acid uptake by hURAT1 in HEK293-transfected cells). Details: HEK-293T cells stably expressing hURAT1, 14C-uric acid uptake, 5 min at 37° C.
T1 construct: expressed in transfected cells
T1 sequence (Q96S37 1-553): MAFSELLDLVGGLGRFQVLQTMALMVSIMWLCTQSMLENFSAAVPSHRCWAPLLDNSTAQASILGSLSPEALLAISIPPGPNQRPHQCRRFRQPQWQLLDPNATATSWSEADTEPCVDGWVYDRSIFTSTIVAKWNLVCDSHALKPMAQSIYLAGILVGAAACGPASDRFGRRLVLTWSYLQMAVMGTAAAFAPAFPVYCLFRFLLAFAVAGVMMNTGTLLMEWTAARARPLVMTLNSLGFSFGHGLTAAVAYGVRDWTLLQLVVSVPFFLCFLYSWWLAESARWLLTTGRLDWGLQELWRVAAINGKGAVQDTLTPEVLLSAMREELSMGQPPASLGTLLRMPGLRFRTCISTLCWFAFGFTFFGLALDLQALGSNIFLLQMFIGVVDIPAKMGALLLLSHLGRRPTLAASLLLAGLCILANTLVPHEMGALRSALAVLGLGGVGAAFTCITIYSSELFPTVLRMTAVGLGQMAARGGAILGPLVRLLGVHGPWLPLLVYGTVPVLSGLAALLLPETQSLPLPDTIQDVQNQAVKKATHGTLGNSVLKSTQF
Format: cell-based
Method: 1. Cell Culture and Inoculation
2) When the cells covered 80% of the culture medium, the culture medium was removed. The cells were washed with PBS once, followed by digestion with pancreatin-EDTA. After detachment, the cells were added with a culture medium, exfoliated by pipetting, and centrifuged for harvesting. The harvested cells were added with a culture medium and mixed well to give a cell suspension.
3) The cell density was adjusted to 3×10^5 cells/mL, transferred into a white-wall, clear-bottom, 96-well cell culture plate with 100 μL/well, and incubated for 12-24 h.
1) A 20 mM stock solution of the compound was prepared with DMSO. Then the stock solution was diluted to a starting concentration of 2 mM with DMSO.
2) The solution was serially 4-fold diluted with DMSO from […] to the 10th concentration on a 96-well plate serving as the 100× plate, and respective quality controls were prepared.
3) The solutions in corresponding wells were 10-fold diluted with Cl-free HBSS buffer on another 96-well plate serving as the 10× plate.
4) Buffer containing 0.1 μCi/mL ^14C-uric acid, at 45 μL/well, and a 10× diluted compound, at 5 μL/well, were added to a third 96-well plate serving as the 1× plate for later use. The concentration of DMSO was 1%.
3. Uptake of ^14C-Uric Acid in Cells Stably Expressing hURAT1
1) The uptake assay was performed after the cultivated cells in 96-well plates adhered.
2) The cells were washed once with pre-heated buffer at 200 μL/well.
3) After the wells were dried, corresponding compounds (50 μL/well) and 0.1 μCi/mL ^14C-uric acid were immediately added.
4) The plate with the compound was incubated in a 37° C. incubator for 5 min.
5) 150 μL of ice-cold buffer was added to each well to terminate the uptake. Each well was washed three times with buffer. The cells were carefully washed to avoid detachment.
6) 50 μL of lysis buffer was added to each well, prior to shaking at 900 rpm on an oscillator for 5 min.
7) 150 μL of scintillation solution (Microint 40) was added to each well before shaking at 900 rpm for 5 min.
8) Finally, the microwell plate was transferred to a MicroBeta Trilux (PerkinElmer Co. Ltd.) for detection.
The data were analyzed and the IC50 of the quality controls and all test compounds on the plates were calculated using XL-fit software.

`CCc1nc2ncc(Br)cn2c1C(=O)c1cc(Br)c(O)c(Br)c1` [Example 3, (6-bromo-2-ethylimidazo[1,2-a]pyrimidin-3-yl)(3,5-dibromo-4-hydroxyphenyl)methanone] and `CCc1nc2ncc(F)cn2c1C(=O)c1cc(Br)c(O)c(Br)c1` [Example 4, (3,5-dibromo-4-hydroxyphenyl)(2-ethyl-6-fluoroimidazo[1,2-a]pyrimidin-3-yl)methanone] cannot be ordered by IC50: under 50 nM for the first, under 50 nM for the second.

`CCc1nc2ncc(C(F)(F)F)cn2c1C(=O)c1cc(Br)c(O)c(Br)c1` [Example 5, (3,5-dibromo-4-hydroxyphenyl)(2-ethyl-6-(trifluoromethyl)imidazo[1,2-a]pyrimidin-3-yl)methanone] and `CCc1nc2ncc(Cl)cn2c1C(=O)c1cc(Br)c(O)c(Br)c1` [Example 6, (6-chloro-2-ethylimidazo[1,2-a]pyrimidin-3-yl)(3,5-dibromo-4-hydroxyphenyl)methanone] cannot be ordered by IC50: under 50 nM for the first, under 50 nM for the second.

Compared with `CCc1nc2cc(C(F)(F)F)ncn2c1C(=O)c1cc(Br)c(O)c(Br)c1` [Example 7, (3,5-dibromo-4-hydroxyphenyl)(2-ethyl-7-(trifluoromethyl)imidazo[1,2-c]pyrimidin-3-yl)methanone], `CCc1nc2cc(Cl)ncn2c1C(=O)c1cc(Br)c(O)c(Br)c1` [Example 21, (7-chloro-2-ethylimidazo[1,2-f]pyrimidin-3-yl)(3,5-dibromo-4-hydroxyphenyl)methanone] is lower in IC50: 50 to 200 nM for the first, under 50 nM for the second.

Compared with `CCn1nc2ccc(F)cc2c1C(=O)c1cc(Br)c(O)c(Br)c1` [Example 9, (3,5-dibromo-4-hydroxyphenyl)(2-ethyl-5-fluoro-2H-indazol-3-yl) methanone], `CCn1nc2ccncc2c1C(=O)c1cc(Br)c(O)c(Br)c1` [Example 16, (3,5-dibromo-4-hydroxyphenyl)(2-ethyl-2H-pyrazolo[4,3-c]pyridin-3-yl)methanone] is lower in IC50: 50 to 200 nM for the first, under 50 nM for the second.

Compared with `CCc1nc2ncc(F)cn2c1C(=O)c1cc(Br)c(O)c(C#N)c1` [Example 14, 3-bromo-5-(2-ethyl-6-fluoroimidazo[1,2-a]pyrimidine-3-carbonyl)-2-hydroxybenzonitrile], `CCc1nc2ncccn2c1C(=O)c1cc(Br)c(O)c(C#N)c1` [Example 22, 3-bromo-5-(2-ethylimidazo[1,2-a]pyrimidine-3-carbonyl)-2-hydroxybenzonitrile] is higher in IC50: 50 to 200 nM for the first, 200 to 500 nM for the second. The first is the more potent here.

First: CCc1nc2ncc(F)cn2c1C(=O)c1cc(Br)c(O)c(C(F)(F)F)c1 [Example 18, (3-bromo-4-hydroxy-5-(trifluoromethyl)phenyl)(2-ethyl-6-fluoroimidazo[1,2-a]pyrimidin-3-yl)methanone]
Second: CCc1nc2ncccn2c1C(=O)c1cc(Br)c(O)c(C(F)(F)F)c1 [Example 23, (3-bromo-4-hydroxy-5-(trifluoromethyl)phenyl)(2-ethylimidazo[1,2-a]pyrimidin-3-yl)methanone]
The IC50 of the first is lower: under 50 nM for the first, 50 to 200 nM for the second.

`CCc1nc2ncccn2c1C(=O)c1cc(Br)c(O)c(Br)c1` [Example 20, 2,6-dibromo-4-([2-ethylimidazo[1,2-a]pyrimidin-3-yl]carbonyl) phenol] showed an IC50 of under 50 nM.
